Our source for the inhibition values is patent US10669284B2, “Fused thiazolopyrimidine derivatives as MNKS inhibitors” (LIFEARC, priority 2015, dated 2020).

Each structure is given as a SMILES string.

One assay deals with T1, BMX (Homo sapiens, UniProt P51813).
T1 sequence (P51813 1-675): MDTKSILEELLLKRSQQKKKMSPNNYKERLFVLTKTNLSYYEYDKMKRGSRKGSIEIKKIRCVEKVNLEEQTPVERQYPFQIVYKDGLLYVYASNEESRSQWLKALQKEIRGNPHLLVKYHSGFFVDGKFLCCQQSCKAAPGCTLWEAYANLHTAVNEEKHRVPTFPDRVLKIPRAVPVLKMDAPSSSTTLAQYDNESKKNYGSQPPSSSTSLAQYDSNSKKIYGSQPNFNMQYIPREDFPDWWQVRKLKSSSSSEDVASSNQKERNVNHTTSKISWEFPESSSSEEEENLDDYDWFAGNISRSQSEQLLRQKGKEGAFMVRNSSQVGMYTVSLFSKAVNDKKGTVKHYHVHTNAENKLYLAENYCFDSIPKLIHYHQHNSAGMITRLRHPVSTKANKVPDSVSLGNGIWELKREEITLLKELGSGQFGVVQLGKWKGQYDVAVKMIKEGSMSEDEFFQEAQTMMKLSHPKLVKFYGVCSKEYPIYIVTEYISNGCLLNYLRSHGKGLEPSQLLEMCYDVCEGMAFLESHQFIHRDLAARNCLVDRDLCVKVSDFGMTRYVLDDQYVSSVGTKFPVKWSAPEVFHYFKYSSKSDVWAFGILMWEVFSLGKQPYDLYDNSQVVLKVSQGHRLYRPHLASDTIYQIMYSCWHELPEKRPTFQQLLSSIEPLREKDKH
The assay can be described thus: Kinase selectivity screen BMX. The settings on record: read-out: % inhibition of BMX.

The next assay addresses T2, TBK1 (Homo sapiens, UniProt Q9UHD2).
T2 sequence (Q9UHD2 1-729): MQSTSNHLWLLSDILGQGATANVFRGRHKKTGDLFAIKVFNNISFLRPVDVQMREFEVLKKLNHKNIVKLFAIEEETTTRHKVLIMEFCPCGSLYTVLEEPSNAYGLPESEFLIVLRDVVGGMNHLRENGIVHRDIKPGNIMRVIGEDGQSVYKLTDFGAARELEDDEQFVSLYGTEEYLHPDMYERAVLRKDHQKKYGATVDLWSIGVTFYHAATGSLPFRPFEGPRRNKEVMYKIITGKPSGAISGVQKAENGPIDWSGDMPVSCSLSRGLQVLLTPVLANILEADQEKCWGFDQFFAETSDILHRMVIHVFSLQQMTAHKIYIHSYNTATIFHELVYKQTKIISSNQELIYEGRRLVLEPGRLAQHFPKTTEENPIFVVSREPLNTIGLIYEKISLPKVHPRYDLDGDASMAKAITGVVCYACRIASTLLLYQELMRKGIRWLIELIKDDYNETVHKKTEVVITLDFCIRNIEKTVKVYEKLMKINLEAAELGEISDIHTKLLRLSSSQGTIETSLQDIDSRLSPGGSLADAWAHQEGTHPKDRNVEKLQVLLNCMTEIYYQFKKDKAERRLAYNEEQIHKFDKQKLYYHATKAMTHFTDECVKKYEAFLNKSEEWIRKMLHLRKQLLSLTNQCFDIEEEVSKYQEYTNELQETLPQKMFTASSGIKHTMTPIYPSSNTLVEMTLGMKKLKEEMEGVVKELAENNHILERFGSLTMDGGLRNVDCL
Nature of the assay: Kinase selectivity screen TBK1. The settings on record: read-out: % inhibition of TBK1.

Another assay deals with T3, DMPK (Homo sapiens, UniProt Q09013).
T3 sequence (Q09013 1-629): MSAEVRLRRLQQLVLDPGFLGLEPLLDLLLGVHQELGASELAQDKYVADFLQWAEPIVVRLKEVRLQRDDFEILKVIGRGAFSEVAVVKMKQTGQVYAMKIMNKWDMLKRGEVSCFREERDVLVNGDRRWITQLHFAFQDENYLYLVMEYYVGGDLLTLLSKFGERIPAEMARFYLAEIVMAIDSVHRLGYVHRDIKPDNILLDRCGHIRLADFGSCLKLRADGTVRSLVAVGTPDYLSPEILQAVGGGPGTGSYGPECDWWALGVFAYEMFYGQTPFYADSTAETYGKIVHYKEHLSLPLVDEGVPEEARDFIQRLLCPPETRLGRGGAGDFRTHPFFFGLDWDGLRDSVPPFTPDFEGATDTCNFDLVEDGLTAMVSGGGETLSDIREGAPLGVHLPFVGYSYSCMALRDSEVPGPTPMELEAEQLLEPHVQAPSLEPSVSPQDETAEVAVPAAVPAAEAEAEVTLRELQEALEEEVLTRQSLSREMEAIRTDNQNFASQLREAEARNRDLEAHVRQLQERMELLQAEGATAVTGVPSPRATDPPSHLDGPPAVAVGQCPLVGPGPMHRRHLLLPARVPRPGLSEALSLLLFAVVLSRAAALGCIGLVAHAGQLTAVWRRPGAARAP
Nature of the assay: Kinase selectivity screen DMPK. The settings on record: read-out: % inhibition of DMPK.

In another assay the target is MAPK8 (Homo sapiens, UniProt P45983). Nature of the assay: Kinase selectivity screen MAPK8. Particulars: read-out: % inhibition of MAPK8.
A further assay deals with FLT1 (Homo sapiens, UniProt P17948). The assay can be described thus: Kinase selectivity screen FLT1. The settings on record: read-out: % inhibition of FLT1.
A further assay addresses INSRR (Homo sapiens, UniProt P14616). The assay can be described thus: Kinase selectivity screen INSRR. Particulars: read-out: % inhibition of INSRR.
A further assay addresses CaMK1 (Homo sapiens, UniProt Q14012). The assay can be described thus: Kinase selectivity screen CaMK1. The settings on record: read-out: % inhibition of CaMK1.
The next assay deals with T4, ACVR1B (Homo sapiens, UniProt P36896).
T4 sequence (P36896 24-505): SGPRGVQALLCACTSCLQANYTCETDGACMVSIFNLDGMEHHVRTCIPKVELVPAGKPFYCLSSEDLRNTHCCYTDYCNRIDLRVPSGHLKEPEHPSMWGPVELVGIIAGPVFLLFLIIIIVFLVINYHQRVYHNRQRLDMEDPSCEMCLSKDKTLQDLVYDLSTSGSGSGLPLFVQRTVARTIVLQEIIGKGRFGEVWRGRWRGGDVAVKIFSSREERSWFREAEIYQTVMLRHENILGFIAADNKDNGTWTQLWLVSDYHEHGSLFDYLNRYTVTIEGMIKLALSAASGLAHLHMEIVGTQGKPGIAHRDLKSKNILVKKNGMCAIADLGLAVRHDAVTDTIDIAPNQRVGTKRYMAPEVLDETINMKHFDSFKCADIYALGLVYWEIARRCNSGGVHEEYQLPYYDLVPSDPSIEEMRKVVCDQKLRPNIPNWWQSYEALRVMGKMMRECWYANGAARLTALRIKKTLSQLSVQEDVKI
Nature of the assay: Kinase selectivity screen ACVR1B. Particulars: read-out: % inhibition of ACVR1B.

CaMK1, sequence (Q14012 whole entry): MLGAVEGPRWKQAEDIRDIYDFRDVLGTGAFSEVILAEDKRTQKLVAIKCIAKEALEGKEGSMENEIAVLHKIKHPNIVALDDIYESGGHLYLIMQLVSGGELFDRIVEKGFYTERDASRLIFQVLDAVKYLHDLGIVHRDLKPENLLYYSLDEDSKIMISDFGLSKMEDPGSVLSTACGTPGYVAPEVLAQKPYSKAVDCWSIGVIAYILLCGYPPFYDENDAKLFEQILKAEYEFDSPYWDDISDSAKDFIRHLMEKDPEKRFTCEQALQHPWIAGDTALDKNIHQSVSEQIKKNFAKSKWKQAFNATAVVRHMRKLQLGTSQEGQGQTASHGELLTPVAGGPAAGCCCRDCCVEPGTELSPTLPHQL
FLT1, sequence (P17948 27-1338, species assumed): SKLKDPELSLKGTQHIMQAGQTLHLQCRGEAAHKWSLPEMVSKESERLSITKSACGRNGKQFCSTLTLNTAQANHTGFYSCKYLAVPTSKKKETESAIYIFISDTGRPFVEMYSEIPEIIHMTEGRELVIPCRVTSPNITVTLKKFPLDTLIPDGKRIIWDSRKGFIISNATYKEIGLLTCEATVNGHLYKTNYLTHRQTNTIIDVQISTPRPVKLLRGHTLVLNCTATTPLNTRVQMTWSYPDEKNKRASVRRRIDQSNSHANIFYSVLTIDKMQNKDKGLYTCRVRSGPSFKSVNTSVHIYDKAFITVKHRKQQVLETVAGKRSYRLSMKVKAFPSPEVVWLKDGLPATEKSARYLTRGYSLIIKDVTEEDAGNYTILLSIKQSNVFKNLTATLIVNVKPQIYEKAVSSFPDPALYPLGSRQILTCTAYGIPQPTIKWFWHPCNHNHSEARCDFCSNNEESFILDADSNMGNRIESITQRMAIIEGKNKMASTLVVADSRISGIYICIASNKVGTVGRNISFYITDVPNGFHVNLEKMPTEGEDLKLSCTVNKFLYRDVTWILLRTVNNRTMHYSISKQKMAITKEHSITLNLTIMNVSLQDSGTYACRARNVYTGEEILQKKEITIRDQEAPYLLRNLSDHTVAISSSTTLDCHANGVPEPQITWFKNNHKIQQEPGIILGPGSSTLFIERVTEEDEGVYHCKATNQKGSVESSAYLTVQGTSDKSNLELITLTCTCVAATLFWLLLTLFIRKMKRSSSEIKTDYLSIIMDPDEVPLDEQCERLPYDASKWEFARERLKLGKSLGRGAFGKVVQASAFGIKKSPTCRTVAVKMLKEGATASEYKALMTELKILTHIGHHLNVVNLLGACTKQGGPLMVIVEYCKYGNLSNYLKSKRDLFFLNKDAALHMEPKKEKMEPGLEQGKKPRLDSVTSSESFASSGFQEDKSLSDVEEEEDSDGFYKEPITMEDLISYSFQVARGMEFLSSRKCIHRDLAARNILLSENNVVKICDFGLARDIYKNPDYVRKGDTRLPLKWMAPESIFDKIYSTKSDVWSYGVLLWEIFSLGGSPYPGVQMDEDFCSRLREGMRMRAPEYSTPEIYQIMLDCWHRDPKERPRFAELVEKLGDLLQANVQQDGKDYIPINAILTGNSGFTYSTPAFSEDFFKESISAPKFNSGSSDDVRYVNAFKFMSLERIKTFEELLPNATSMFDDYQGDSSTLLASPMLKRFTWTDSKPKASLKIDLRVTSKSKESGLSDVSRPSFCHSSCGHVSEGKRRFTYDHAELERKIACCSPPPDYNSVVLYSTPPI
INSRR, sequence (P14616 27-1297, species assumed): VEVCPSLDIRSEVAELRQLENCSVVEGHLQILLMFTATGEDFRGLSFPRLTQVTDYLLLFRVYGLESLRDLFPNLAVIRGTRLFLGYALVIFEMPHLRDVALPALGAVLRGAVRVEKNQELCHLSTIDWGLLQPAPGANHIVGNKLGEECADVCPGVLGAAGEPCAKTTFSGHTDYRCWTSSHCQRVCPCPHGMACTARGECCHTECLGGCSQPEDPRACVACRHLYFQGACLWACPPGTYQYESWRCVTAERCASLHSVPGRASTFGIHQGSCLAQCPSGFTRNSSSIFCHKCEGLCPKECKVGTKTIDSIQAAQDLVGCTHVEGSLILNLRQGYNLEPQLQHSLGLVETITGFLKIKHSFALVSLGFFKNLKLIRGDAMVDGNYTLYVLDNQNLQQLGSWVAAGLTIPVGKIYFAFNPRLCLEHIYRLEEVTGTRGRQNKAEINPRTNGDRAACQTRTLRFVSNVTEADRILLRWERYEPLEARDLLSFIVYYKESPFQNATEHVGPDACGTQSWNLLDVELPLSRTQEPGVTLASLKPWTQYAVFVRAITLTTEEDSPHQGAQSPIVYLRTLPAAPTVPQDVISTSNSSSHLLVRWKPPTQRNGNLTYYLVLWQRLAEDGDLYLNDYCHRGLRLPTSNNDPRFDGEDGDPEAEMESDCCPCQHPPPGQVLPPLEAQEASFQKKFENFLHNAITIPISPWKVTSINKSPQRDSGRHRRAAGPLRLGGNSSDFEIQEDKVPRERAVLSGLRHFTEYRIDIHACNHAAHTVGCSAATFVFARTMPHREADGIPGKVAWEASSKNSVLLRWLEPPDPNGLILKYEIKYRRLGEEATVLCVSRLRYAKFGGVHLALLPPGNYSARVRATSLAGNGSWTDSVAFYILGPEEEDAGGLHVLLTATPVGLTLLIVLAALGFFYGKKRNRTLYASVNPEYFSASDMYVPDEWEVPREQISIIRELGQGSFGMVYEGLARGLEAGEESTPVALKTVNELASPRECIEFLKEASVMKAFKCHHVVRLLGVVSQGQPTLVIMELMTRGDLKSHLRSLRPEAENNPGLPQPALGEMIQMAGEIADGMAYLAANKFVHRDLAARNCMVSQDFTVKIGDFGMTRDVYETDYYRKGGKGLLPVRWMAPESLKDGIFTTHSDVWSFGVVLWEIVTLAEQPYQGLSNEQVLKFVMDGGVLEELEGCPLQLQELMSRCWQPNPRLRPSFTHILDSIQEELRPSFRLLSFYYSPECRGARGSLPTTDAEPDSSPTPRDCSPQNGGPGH
MAPK8, sequence (P45983 whole entry, species assumed): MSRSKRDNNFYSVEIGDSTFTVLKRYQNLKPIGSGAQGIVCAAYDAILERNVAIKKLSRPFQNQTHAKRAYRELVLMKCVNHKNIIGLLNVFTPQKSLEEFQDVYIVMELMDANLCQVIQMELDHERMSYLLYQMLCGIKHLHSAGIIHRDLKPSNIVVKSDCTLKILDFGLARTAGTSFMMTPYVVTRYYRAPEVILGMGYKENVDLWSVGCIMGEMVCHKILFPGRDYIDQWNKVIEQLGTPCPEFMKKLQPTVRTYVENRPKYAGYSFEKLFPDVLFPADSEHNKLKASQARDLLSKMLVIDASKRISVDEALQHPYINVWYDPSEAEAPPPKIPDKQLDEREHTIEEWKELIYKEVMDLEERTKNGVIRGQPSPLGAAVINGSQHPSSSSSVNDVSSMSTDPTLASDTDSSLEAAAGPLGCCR

With `O=C(NCC1CCNCC1)c1nc2c(N3CCc4cc(F)ccc43)ncnc2s1` [Example 58, 7-(5-fluoroindolin-1-yl)-N-(4-piperidylmethyl)thiazolo[5,4-d]pyrimidine-2-carboxamide], the inhibition (commonly the share of the control response that was lost under treatment) at 1 µM on BMX is 0%; at TBK1 it was 17%; on DMPK, 0%; at MAPK8, 1%; on FLT1, 6%; on INSRR, 13%. Further, the values for the inhibition at 1 µM on CaMK1 and on ACVR1B were 11% and 0%, respectively.

As to `CN(C)CCCNC(=O)c1nc2c(N3CCc4cc(F)ccc43)ncnc2s1` [Example 64, N-[3-(dimethylamino)propyl]-7-(5-fluoroindolin-1-yl)thiazolo[5,4-d]pyrimidine-2-carboxamide], the inhibition at 1 µM on BMX is 6%; at TBK1 it was 7%; at DMPK, 0%; on MAPK8, 0%; on FLT1, 27%; on INSRR it was 0%. In addition, the inhibition at 1 µM on CaMK1 was found to be 18%; at ACVR1B it was 15%.

In the case of `CC(C)Oc1cc(F)ccc1Nc1ncnc2sc(C(=O)NCC3CCNCC3)nc12` [Example 10, 7-(4-fluoro-2-isopropoxy-anilino)-N-(4-piperidylmethyl)thiazolo[5,4-d]pyrimidine-2-carboxamide], the inhibition at 1 µM at BMX is 0%; at TBK1 it was 14%; on DMPK, 0%; on MAPK8, 5%; on FLT1, 12%; on INSRR, 10%. Further, the values for the inhibition at 1 µM at CaMK1 and at ACVR1B were 11% and 6%, respectively.
